A short description of data set [1]: Cytotoxicity, MTT reduction assay, HELA cells. It is filed as cell-based. Particulars: 48 h, 12.5-50 μM. As to the method:
(§1) Mouse pre-B cells were cultured in RPMI1640 plus 5% FBS, antibiotic/antimycotic, non essential amino acid, 50 μM β-mercaptoethanol and 1 mM natrium pyruvate. HELA cells were maintained in RPMI1640 plus 10% FBS, pen/strept and 2 mM L-glutamine. Cos-7 cells were grown in DMEM medium with […] glucose supplemented with 10% FCS, pen/strept and 2 mM L-glutamine. All cell lines were grown at 37° C. at 5% CO2. Cell media, media supplements, PBS-buffer, HEPES, antibiotic/antimycotic, pen/strept, non essential amino acid, L-glutamine, β-mercaptoethanol and sera were purchased from Gibco (Pailsey, UK). All fine chemicals were supplied by Merck (Darmstadt, Germany).
(§2) The cytotoxicity of the peptides to HELA cells (Acc57) and COS-7 cells (CRL-1651) was determined using the MTT reduction assay (T. Mossman, J. Immunol. Meth. 1983, 65, 55-63; M. V. Berridge, A. S. Tan, Arch. Biochem. Biophys. 1993, 303, 474-482). Briefly, the method was as follows: 4000 HELA cells/well and 3400 COS-7 cells/well were seeded and grown in 96-well microtiter plates for 24 h at 37° C. at 5% CO2. Thereafter, time zero (Tz) was determined by MTT reduction (see below). The supernatant of the remaining wells was discarded, and fresh medium and compounds in serial dilutions (12.5, 25 and 50 μM, triplicates) were pipetted into the wells. After incubation of the cells for 48 h at 37° C. at 5% CO2 the supernatant was discarded again and 100 μL MTT reagent (0.5 mg/mL in RPMI1640 and DMEM, respectively)/well was added. Following incubation at 37° C. for 2-4 h the media were aspirated and the cells were spiked (100 μL isopropanol/well). The absorbance of the solubilized formazan was measured at 595 nm (OD595peptide). For each concentration averages were calculated from triplicates. The percentage of growth was calculated as follows: (OD595peptide-OD595Tz-OD595Empty well)/(OD595Tz-OD595Empty well)×100%. The GI50 (Growth Inhibition) concentrations were calculated for each peptide by using a trend line function for the concentrations (50, 25, 12.5 and 0 μM), the corresponding percentages and the value 50, (=TREND (C50: C0, %50:%0,50).
On the technique in general: Formazan colour is commonly taken as a measure of viable cells.

The nature of data set [2]: Cytotoxicity, MTT reduction assay, COS-7 cells. Particulars: 48 h, 12.5-50 μM. It is filed as cell-based. As to the method:
as §1, §2

Data set [3] can be described thus: Plasma stability in human plasma. The data set is classed as in vitro ADME. Conditions: human plasma, 37° C.; for remaining at 24 h, 10 μM: 1440 min, read-out: human pl. cpd left at 1440 min; for half-life / human pl. T1/2: up to 1440 min; for half-life: read-out: human pl. T1/2. On the procedure:
(§3) Percent hemolysis was calculated as follows: (OD540peptide/OD540H2O)×100%. 2.6. Plasma Stability
(§4) The stability of the peptides in human and mouse plasma was determined by applying the following method: 346.5 μL/deep well of freshly thawed human plasma (Basler Blutspendedienst) and mouse plasma (Harlan Sera-Lab, UK), respectively, were spiked with 3.5 μL/well of compound dissolved in DMSO/H2O ([…] [v/v], 1 mM, triplicate) and incubated at 37° C. At t=0, 15, 30, 60, 120, 240 and 1440 min aliquots of 50 μL were transferred to filtration plate wells containing 150 μL/well of 2% formic acid in acetonitrile. Following shaking for 2 min the occurred suspensions were filtrated by vacuum and 50 μL of each filtrate was mixed with 100 μL of 1% formic acid in H2O. After transfer to a propylene microtiter plate, the filtrates were analyzed by LC/MS as follows: Column: Waters, XBridge C18, mobile phases: (A) water+0.1% formic acid and (B) acetonitrile/water, 95/5 (v/v)+0.1% formic acid, gradient: 5%-100% (B) in 2 minutes, electrospray ionization, MRM detection (triple quadrupole). The peak areas were determined and triplicate values are averaged. The stability is expressed in percent of the initial value at t=0. (tx/t0×100). By using the TREND function of EXCEL (Microsoft Office 2003) T1/2 were determined.

Data set [4] can be described thus: Plasma stability in mouse plasma. The data set is classed as in vitro ADME. Particulars: mouse plasma, 37° C.; for remaining at 24 h, 10 μM: 1440 min, read-out: mouse pl. cpd left at 1440 min; for mouse pl. T1/2: up to 1440 min. As to the method:
as §3, §4

The structures appear in SMILES notation. Numbered stars: 1 amine (or outer) side, 2 acyl side, 3 side chain; on linkers, the order of the positions; unused ones are H or OH. Bridge positions count the residues as written; N and C are the ends. Square brackets hold non-standard residues; d marks the D form. Side chains are listed from the residue outwards. Peptide text beside a SMILES is read from it. * marks the point of attachment. Cholyl = C[C@H](CCC(=O)*)[C@H]1CC[C@H]2[C@@H]3[C@H](O)C[C@@H]4C[C@H](O)CC[C@]4(C)[C@H]3C[C@H](O)[C@]12C; Adamantane1carbonyl = O=C(C12CC3CC(CC(C3)C1)C2)*; Hexadecanoyl(16-OH) = O=C(CCCCCCCCCCCCCCCO)*; X1 = O=C([C@H]1C[C@H](N[*:3])CN1[*:1])[*:2]; NH(1-Adamantyl) = C1C2CC3CC1CC(N*)(C2)C3; Gly(decyl) = CCCCCCCCCC[C@H](N)C(=O)O; Myristoyl = CCCCCCCCCCCCCC(=O)*; Octanoyl = CCCCCCCC(=O)*; Dab = NCC[C@H](N)C(=O)O Where only a bound is given, the exact number is not on record here.

With `CCCCCCCCCCCCCC(=O)N[C@H]1C[C@@H]2C(=O)N[C@@H](CCN)C(=O)N[C@@H](CCCNC(=N)N)C(=O)N[C@@H](Cc3ccc(O)cc3)C(=O)N[C@H]3CSSC[C@H](NC(=O)[C@H]([C@@H](C)O)NC(=O)[C@H](Cc4c[nH]cn4)NC(=O)[C@H](Cc4ccc(O)cc4)NC(=O)[C@@H]4CCCN4C(=O)[C@H]4CCCN4C(=O)[C@H](CCC(N)=O)NC(=O)[C@H](CCC(N)=O)NC(=O)[C@H](Cc4ccc(O)cc4)NC3=O)C(=O)N[C@@H](CCCNC(=N)N)C(=O)NCC(=O)N2C1` [Ex. 4] (cyclo(YHTCRG[X1](Myristoyl)[Dab]RYCYQQ[dP]P); disulfide 4-11), the GI50 – broadly, the concentration giving 50% growth inhibition – in data set [1] (HELA cells) is over 50 µM. Moreover, the concentration for 50% growth inhibition (GI50) in data set [2] (COS-7 cells) was over 50 µM. Besides, in data set [3], the remaining at 24 h, 10 μM is 66% and the half-life was 5.25 h. In data set [4], the remaining at 24 h, 10 μM stood at 62% and the “mouse pl. T1/2” value stood at 24 h.

`CCCCCCCCCC[C@@H]1NC(=O)[C@H](Cc2ccc(O)cc2)NC(=O)[C@@H]2CSSC[C@H](NC(=O)[C@H](Cc3ccc(O)cc3)NC(=O)[C@H](Cc3c[nH]cn3)NC(=O)[C@H](Cc3ccc(O)cc3)NC(=O)[C@@H]3CCCN3C(=O)[C@H]3CCCN3C(=O)[C@H](CCCCN)NC1=O)C(=O)N[C@@H](CCCNC(=N)N)C(=O)N[C@@H](C)C(=O)N1CCC[C@@H]1C(=O)N[C@@H](CCN)C(=O)N[C@@H](CCCNC(=N)N)C(=O)N[C@@H](Cc1ccc(O)cc1)C(=O)N2` [Ex. 8] (cyclo(YHYCRA[dP][Dab]RYCY[Gly(decyl)]K[dP]P); disulfide 4-11) returned a GI50 in data set [1] (HELA cells) of over 26 µM. Besides, the GI50 in data set [2] (COS-7 cells) was over 44 µM. Also, in data set [3], the remaining at 24 h, 10 μM was determined as 79% and the “human pl. T1/2” value was found to be 24 h. In addition, in data set [4], the remaining at 24 h, 10 μM amounted to 82% and the “mouse pl. T1/2” value came to 24 h.

Turning to `C[C@@H]1NC(=O)[C@H](CO)NC(=O)[C@@H]2CSSC[C@H](NC(=O)[C@H](Cc3ccc(O)cc3)NC(=O)[C@H](CCCNC(=N)N)NC(=O)[C@H](CCN)NC(=O)[C@H]3CCCN3C1=O)C(=O)N[C@@H](Cc1ccc(O)cc1)C(=O)N[C@@H](CCCCNC(=O)CCCCCCCCCCCCCCCO)C(=O)N[C@@H](CCCCN)C(=O)N1CCC[C@@H]1C(=O)N1CCC[C@H]1C(=O)N[C@@H](Cc1ccc(O)cc1)C(=O)N[C@@H](Cc1c[nH]cn1)C(=O)N[C@@H](Cc1ccc(O)cc1)C(=O)N2` [Ex. 21] (cyclo(YHYCSA[dP][Dab]RYCYK(Hexadecanoyl(16-OH))K[dP]P); disulfide 4-11), the GI50 in data set [1] and in data set [2] was over 50 µM throughout. For the same compound, the remaining at 24 h, 10 μM in data set [3] came to 49%; in data set [4], 63%. Besides, the half-life in data set [3] came to 18.6 h. Further, the “mouse pl. T1/2” value in data set [4] turned out to be 24 h.

Regarding `C[C@@H](O)[C@@H]1NC(=O)[C@H](Cc2c[nH]cn2)NC(=O)[C@H](Cc2ccc(O)cc2)NC(=O)[C@@H]2CCCN2C(=O)[C@H]2CCCN2C(=O)[C@H](CCC(N)=O)NC(=O)[C@H](CCC(=O)NC23CC4CC(CC(C4)C2)C3)NC(=O)[C@H](Cc2ccc(O)cc2)NC(=O)[C@@H]2CSSC[C@H](NC1=O)C(=O)N[C@@H](CCCNC(=N)N)C(=O)NCC(=O)N1CCC[C@@H]1C(=O)N[C@@H](CCN)C(=O)N[C@@H](CCCNC(=N)N)C(=O)N[C@@H](Cc1ccc(O)cc1)C(=O)N2` [Ex. 31] (cyclo(YHTCRG[dP][Dab]RYCYE(NH(1-Adamantyl))Q[dP]P); disulfide 4-11), the figures for the GI50 in data set [1] and in data set [2] were over 37 µM and over 50 µM, respectively. Moreover, the remaining at 24 h, 10 μM in data set [3] amounted to 68%. For the same compound, the “human pl. T1/2” value in data set [3] amounted to 24 h.

`CCCCCCCC(=O)NCCCC[C@@H]1NC(=O)[C@H](CCC(N)=O)NC(=O)[C@H](Cc2ccc(O)cc2)NC(=O)[C@@H]2CSSC[C@H](NC(=O)[C@H](Cc3ccc(O)cc3)NC(=O)[C@H](CCCNC(=N)N)NC(=O)[C@H](Cc3ccc(O)cc3)NC(=O)[C@@H]3CCCN3C(=O)[C@H]3CCCN3C1=O)C(=O)N[C@@H](CO)C(=O)N[C@@H](C)C(=O)N1CCC[C@@H]1C(=O)N[C@@H](CCN)C(=O)N[C@@H](CCCNC(=N)N)C(=O)N[C@@H](Cc1ccc(O)cc1)C(=O)N2` [Ex. 32] (cyclo(YRYCSA[dP][Dab]RYCYQK(Octanoyl)[dP]P); disulfide 4-11): the GI50 in data set [1] (HELA cells) was over 24 µM; in data set [2] (COS-7 cells), over 50 µM. Besides, the remaining at 24 h, 10 μM in data set [3] was 39%. Also, in data set [3], the half-life was determined as 12.9 h.

Take `C[C@@H]1NC(=O)[C@H](CO)NC(=O)[C@@H]2CSSC[C@H](NC(=O)[C@H](Cc3ccc(O)cc3)NC(=O)[C@H](CCCNC(=N)N)NC(=O)[C@H](CCN)NC(=O)[C@H]3CCCN3C1=O)C(=O)N[C@@H](Cc1ccc(O)cc1)C(=O)N[C@@H](CCC(N)=O)C(=O)N[C@@H](CCCCNC(=O)CNC(=O)CC[C@@H](C)[C@H]1CC[C@H]3[C@@H]4[C@H](O)C[C@@H]5C[C@H](O)CC[C@]5(C)[C@H]4C[C@H](O)[C@]13C)C(=O)N1CCC[C@@H]1C(=O)N1CCC[C@H]1C(=O)N[C@@H](Cc1ccc(O)cc1)C(=O)N[C@@H](CCCNC(=N)N)C(=O)N[C@@H](Cc1ccc(O)cc1)C(=O)N2` [Ex. 33] (cyclo(YRYCSA[dP][Dab]RYCYQK([Gly-Cholyl])[dP]P); disulfide 4-11): the GI50 in data set [1] (HELA cells) was over 18 µM. The same compound came in with a concentration for 50% growth inhibition (GI50) in data set [2] (COS-7 cells) of over 50 µM. In addition, in data set [3], the remaining at 24 h, 10 μM was 61% and the half-life came out at 20.4 h.

On to `C[C@@H](O)[C@@H]1NC(=O)[C@H](Cc2c[nH]cn2)NC(=O)[C@H](Cc2ccc(O)cc2)NC(=O)[C@@H]2CCCN2C(=O)[C@H]2CCCN2C(=O)[C@H](CCCCNC(=O)C23CC4CC(CC(C4)C2)C3)NC(=O)[C@H](CCC(N)=O)NC(=O)[C@H](Cc2ccc(O)cc2)NC(=O)[C@@H]2CSSC[C@H](NC1=O)C(=O)N[C@@H](CCCNC(=N)N)C(=O)NCC(=O)N1CCC[C@@H]1C(=O)N[C@@H](CCN)C(=O)N[C@@H](CCCNC(=N)N)C(=O)N[C@@H](Cc1ccc(O)cc1)C(=O)N2` [Ex. 35] (cyclo(YHTCRG[dP][Dab]RYCYQK(Adamantane1carbonyl)[dP]P); disulfide 4-11), for which the values for the concentration for 50% growth inhibition (GI50) in data set [1] and in data set [2] were over 50 µM and over 30 µM, respectively. Besides, the remaining at 24 h, 10 μM in data set [3] was found to be 63%. For the same compound, the “human pl. T1/2” value in data set [3] turned out to be 24 h.

Regarding `C[C@@H](O)[C@@H]1NC(=O)[C@H](Cc2c[nH]cn2)NC(=O)[C@H](Cc2ccc(O)cc2)NC(=O)[C@@H]2CCCN2C(=O)[C@H]2CCCN2C(=O)[C@H](CCC(=O)NC23CC4CC(CC(C4)C2)C3)NC(=O)[C@H](CCC(N)=O)NC(=O)[C@H](Cc2ccc(O)cc2)NC(=O)[C@@H]2CSSC[C@H](NC1=O)C(=O)N[C@@H](CCCNC(=N)N)C(=O)NCC(=O)N1CCC[C@@H]1C(=O)N[C@@H](CCN)C(=O)N[C@@H](CCCNC(=N)N)C(=O)N[C@@H](Cc1ccc(O)cc1)C(=O)N2` [Ex. 36] (cyclo(YHTCRG[dP][Dab]RYCYQE(NH(1-Adamantyl))[dP]P); disulfide 4-11), the GI50 in data set [1] is over 50 µM. In data set [2], this compound registered a GI50 of over 50 µM. Further, in data set [3], the remaining at 24 h, 10 μM worked out at 53% and the half-life was 23.2 h.
